Test results as given in patent publication US8183201B2 (priority 2006, dated 2012).
Read-outs that look alike come from different tables or passages of the source.

Key:
integrin α5β1 = molecular target: T1, integrin α5β1 (Homo sapiens, UniProt P05556+P08648); format: cell-based
T1 construct: Human erythroleukemia K562 cells were purchased from ATCC; host or cells: K562

[1] = system: Human prostate adenocarcinoma PC-3 cells; parameters: species or system SCID mice; conditions: mouse, in vivo
[2] = system: ovariectomized (OVX) mice; parameters: species or system ICR mice; conditions: mouse, in vivo
integrin αIIbβ3 = molecular target: T2, integrin αIIbβ3 (Homo sapiens, UniProt P05106+P08514); format: cell-based
T2 construct: host or cells: CHO (CHO-αIIbβ3)

[3] = system: human breast cancer MDA-MB-231 cells; conditions: mouse, in vivo
Endothelin ETA = molecular target: T3, Endothelin ETA (Homo sapiens, UniProt P25101); format: binding
T3 construct: MDS Pharma services, Taipei, Taiwan (contract assay)
T3 sequence (P25101 21-427): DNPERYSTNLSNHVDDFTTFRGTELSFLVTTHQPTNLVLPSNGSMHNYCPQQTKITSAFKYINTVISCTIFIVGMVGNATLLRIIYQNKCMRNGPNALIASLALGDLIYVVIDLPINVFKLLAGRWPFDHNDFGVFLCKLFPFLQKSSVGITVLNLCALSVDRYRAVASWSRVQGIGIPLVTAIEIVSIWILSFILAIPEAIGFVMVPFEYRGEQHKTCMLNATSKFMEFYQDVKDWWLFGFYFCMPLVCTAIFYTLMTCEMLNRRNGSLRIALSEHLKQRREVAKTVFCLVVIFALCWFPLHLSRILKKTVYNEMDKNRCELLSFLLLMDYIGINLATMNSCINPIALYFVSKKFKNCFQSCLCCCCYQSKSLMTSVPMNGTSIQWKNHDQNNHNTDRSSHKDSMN

[4] = mouse, in vivo
[5] = system: hypoxic-induced angiogenesis; parameters: species or system mice; conditions: mouse, in vivo

T1 sequence (P08648 42-894 limits assumed): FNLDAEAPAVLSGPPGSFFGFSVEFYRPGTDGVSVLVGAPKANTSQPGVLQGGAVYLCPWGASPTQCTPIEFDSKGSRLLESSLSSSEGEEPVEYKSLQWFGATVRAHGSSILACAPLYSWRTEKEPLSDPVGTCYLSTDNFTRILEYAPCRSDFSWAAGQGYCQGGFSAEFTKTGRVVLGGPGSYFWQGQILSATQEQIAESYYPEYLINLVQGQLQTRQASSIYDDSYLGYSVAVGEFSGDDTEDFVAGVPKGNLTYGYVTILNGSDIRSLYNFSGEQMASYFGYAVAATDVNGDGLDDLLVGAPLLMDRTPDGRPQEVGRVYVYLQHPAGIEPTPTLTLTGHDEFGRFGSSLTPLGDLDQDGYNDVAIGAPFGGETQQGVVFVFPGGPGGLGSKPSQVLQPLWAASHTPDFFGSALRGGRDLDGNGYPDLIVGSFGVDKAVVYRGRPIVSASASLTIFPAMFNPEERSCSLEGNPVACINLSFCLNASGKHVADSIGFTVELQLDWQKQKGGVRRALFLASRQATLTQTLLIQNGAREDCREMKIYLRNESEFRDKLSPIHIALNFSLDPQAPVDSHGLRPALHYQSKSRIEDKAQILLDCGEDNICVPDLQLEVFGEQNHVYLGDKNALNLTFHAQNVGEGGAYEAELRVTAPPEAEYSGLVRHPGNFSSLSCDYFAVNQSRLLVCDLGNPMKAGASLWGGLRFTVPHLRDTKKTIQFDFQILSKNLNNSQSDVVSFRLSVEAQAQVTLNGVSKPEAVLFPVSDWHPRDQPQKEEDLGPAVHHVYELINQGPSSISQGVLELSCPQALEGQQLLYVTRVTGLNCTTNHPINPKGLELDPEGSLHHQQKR
T1 sequence (P08648 895-1049 partner limits assumed): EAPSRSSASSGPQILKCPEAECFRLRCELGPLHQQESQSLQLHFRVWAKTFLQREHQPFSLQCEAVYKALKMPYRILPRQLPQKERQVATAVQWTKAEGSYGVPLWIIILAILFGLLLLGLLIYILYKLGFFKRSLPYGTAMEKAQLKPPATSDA
T1 sequence (P05556 21-798): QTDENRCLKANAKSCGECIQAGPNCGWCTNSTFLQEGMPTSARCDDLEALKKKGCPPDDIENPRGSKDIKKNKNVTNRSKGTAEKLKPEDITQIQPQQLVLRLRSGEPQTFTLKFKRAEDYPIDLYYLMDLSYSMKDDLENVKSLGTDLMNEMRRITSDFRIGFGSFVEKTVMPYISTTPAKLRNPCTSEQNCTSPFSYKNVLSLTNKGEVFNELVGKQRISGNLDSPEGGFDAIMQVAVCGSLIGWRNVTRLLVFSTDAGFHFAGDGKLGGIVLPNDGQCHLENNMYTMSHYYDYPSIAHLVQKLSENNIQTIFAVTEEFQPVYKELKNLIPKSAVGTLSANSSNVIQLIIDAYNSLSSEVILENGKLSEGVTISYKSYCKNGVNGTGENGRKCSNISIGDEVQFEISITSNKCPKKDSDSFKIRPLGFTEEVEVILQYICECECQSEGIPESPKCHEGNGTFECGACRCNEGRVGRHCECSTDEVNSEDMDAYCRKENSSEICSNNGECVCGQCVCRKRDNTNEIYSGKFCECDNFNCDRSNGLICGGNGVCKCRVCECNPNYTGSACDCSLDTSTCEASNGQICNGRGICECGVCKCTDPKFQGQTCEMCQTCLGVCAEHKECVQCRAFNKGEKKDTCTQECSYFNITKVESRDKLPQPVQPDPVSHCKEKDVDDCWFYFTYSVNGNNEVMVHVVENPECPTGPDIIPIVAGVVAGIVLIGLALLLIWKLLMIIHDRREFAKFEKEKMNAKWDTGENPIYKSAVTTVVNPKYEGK

RD: rhodostomin variant having a RGD motif variant ^48PRLDMP^53, SEQ ID NO: 36
increase of IC50 in inhibition of integrin α5β1 as compared to Rho (integrin α5β1): > 10 fold
PC-3 tumor-induced osteolysis (radiographs) [1]: inhibited osteolysis
inhibition in tumor cell-induced swelling in hind legs [1]: 43.8±4.1%
tumor-induced decrease in body weight [1]: prevented the loss of body weight
tumor-induced increase in C-terminal telopeptides of type-I collagen [1]: inhibited a tumor-induced increase in C-terminal telopeptides
tumor-induced increase in the serum calcium concentration (hypercalcemia) ([1]; 1.5 mg/kg): inhibited a tumor-induced increase in the serum calcium concentration
tumor growth in legs (in words) ([1]; sc, 1.5 mg/kg): inhibited tumor growth
BMC [2]: 0.582 ± 0.009 g
BMD [2]: 0.085 ± 0.002 g/cm^2
C-terminal telopeptide of COL(1)α1 chain [2]: 533 ± 27.4 ng/mL
BMC ([2]; po, 1.5 mg/kg): 0.627 ± 0.008 g
BMD ([2]; po, 1.5 mg/kg): 0.091 ± 0.001 g/cm^2
C-terminal telopeptide of COL(1)α1 chain ([2]; po, 1.5 mg/kg): 391 ± 8.3 ng/mL
increase of IC50 in inhibition of integrin αIIbβ3 as compared to Rho (integrin αIIbβ3): more than 104 fold
MDA-MB-231-induced tumor growth in bone [3]: inhibited MDA-MB-231-induced increase in tumor growth in bone
blood counts of RBC, WBC and platelet [3]: did not affect the blood counts of RBC, WBC and platelet
tumor-induced hypercalcemia [3]: prevented
tumor-induced increase in osteoclast activity [3]: prevented the tumor-induced increase in osteoclast activity
Inhibition, Endothelin ETA (Endothelin ETA): 26%
effect on tail bleeding (clotting) time [4]: only slightly affected the clotting time
reduction of angiogenesis (blood vessel profiles in the inner retina) compared to vehicle ROP group [5]: about 46%
